Measurements published in patent US5006650A, “Novel N-1 substituted beta-lactams as antibiotics” (The Upjohn Company, priority 1989, dated 1991).
Converted amounts (≈) assume the structure as drawn.

Experiments:
Test in all cases: MIC, agar dilution in Mueller Hinton Agar
Type in all cases: cell-based
[1] = system: Escherichia Coli 9451; details: COLI9451, culture 9451, MHA, 35° C., 20 hours, read-out: Minimum Inhibitory Concentration
Experimental: (§1) The compounds of this invention and their respective pharmacologically acceptable salts have antibiotic activity against a variety of gram-negative bacteria including Escherichia coli, Klebsiella pneumoniae, and Pseudomonas aeruginosa. The compounds are useful for treating bacterial infections in animals, including and most preferably humans. Compounds of the invention are tested for in vitro antimicrobial activity using standard testing procedures such as the determination of minimum inhibitory concentration (MIC) by methods described in "Methods for Dilution Antimicrobial Susceptibility Tests for Bacteria That Grow Aerobically" (M7-A) Published December 1985 by the National Committee for Clinical Laboratory Standards, 771 East Lancaster Avenue, Villanova, Pa. 19084. Briefly, MIC values are determined in unsupplemented Mueller Hinton Agar (MHA). The compounds tested are diluted serially into molten MHA at 47 C. The agar is poured into petri dishes and allowed to harden. The various bacteria used for testing are grown overnight on MHA at 35 C. and transferred to Tryptiease Soy Broth (TSB) until a turbidity of 0.5 McFarland standard is obtained. The bacteria are diluted one to twenty in TSB and inoculated on the plates (1 μl using a Steers replicator).

[2] = system: Serratia Marcescens 6888; details: culture 6888, MHA, 35° C., 20 hours, read-out: Minimum Inhibitory Concentration
Experimental: as §1

[3] = system: Staphylococcus Aursus 6685; details: AURSUS6685, culture 6685, MHA, 35° C., 20 hours, read-out: Minimum Inhibitory Concentration
Experimental: as §1

[4] = system: Escherichia Coli 9380; details: COLI9380, culture 9380, MHA, 35° C., 20 hours, read-out: Minimum Inhibitory Concentration
Experimental: as §1

[5] = system: Pseudomonas Aeruginosa 9191; details: culture 9191, MHA, 35° C., 20 hours, read-out: Minimum Inhibitory Concentration
Experimental: as §1

[6] = system: Staphylococcus Aureus 3665; details: AUREUS3665, culture 3665, MHA, 35° C., 20 hours, read-out: Minimum Inhibitory Concentration
Experimental: as §1

[7] = system: Proteus Vulgaris 9679; details: culture 9679, MHA, 35° C., 20 hours, read-out: Minimum Inhibitory Concentration
Experimental: as §1

[8] = system: Klebsiella Oxytoca 9383; details: OXYTOCA9383, culture 9383, MHA, 35° C., 20 hours, read-out: Minimum Inhibitory Concentration
Experimental: as §1

[9] = system: Enterobacter Cloacae 9382; details: CLOACAE9382, culture 9382, MHA, 35° C., 20 hours, read-out: Minimum Inhibitory Concentration
Experimental: as §1

[10] = system: Klebsiella Pneumoniae 58; details: culture 58, MHA, 35° C., 20 hours, read-out: Minimum Inhibitory Concentration
Experimental: as §1

[11] = system: Streptococcus Pneumoniae 41; details: culture 41, MHA, 35° C., 20 hours, read-out: Minimum Inhibitory Concentration
Experimental: as §1

[12] = system: Klebsiella Oxytoca 9384; details: OXYTOCA9384, culture 9384, MHA, 35° C., 20 hours, read-out: Minimum Inhibitory Concentration
Experimental: as §1

[13] = system: Enterobacter Cloacae 9381; details: CLOACAE9381, culture 9381, MHA, 35° C., 20 hours, read-out: Minimum Inhibitory Concentration
Experimental: as §1

[14] = system: Escherichia Coli 9379; details: COLI9379, culture 9379, MHA, 35° C., 20 hours, read-out: Minimum Inhibitory Concentration
Experimental: as §1

[15] = system: Pseudomonas Aeruginosa 231; details: culture 231, MHA, 35° C., 20 hours, read-out: Minimum Inhibitory Concentration
Experimental: as §1

[16] = system: Staphylococcus Aureus 9218; details: AUREUS9218, culture 9218, MHA, 35° C., 20 hours, read-out: Minimum Inhibitory Concentration
Experimental: as §1

[17] = system: Streptococcus Pyogenes 152; details: culture 152, MHA, 35° C., 20 hours, read-out: Minimum Inhibitory Concentration
Experimental: as §1

[18] = system: Citrobacter Freundli 3507; details: culture 3507, MHA, 35° C., 20 hours, read-out: Minimum Inhibitory Concentration
Experimental: as §1

[19] = system: Streptococcus Faecalis 694; details: Enterococcus faecalis, culture 694, MHA, 35° C., 20 hours, read-out: Minimum Inhibitory Concentration
Experimental: as §1

Row | Structure (SMILES) | MIC [1] [µg/mL] | MIC [2] [µg/mL] | MIC [3] [µg/mL] | MIC [4] [µg/mL] | MIC [5] [µg/mL] | MIC [6] [µg/mL] | MIC [7] [µg/mL] | MIC [8] [µg/mL] | MIC [9] [µg/mL] | MIC [10] [µg/mL] | MIC [11] [µg/mL] | MIC [12] [µg/mL] | MIC [13] [µg/mL] | MIC [14] [µg/mL] | MIC [15] [µg/mL] | MIC [16] [µg/mL] | MIC [17] [µg/mL] | MIC [18] [µg/mL] | MIC [19] [µg/mL]
1 | CC(C)(ON=C(C(=O)NC1CN(C(=O)NS(=O)(=O)n2ncn(NC(=O)c3cc(=O)c(O)c[nH]3)c2=O)C1=O)c1csc(N)n1)C(=O)O (centres unmarked) [Compound U-77938] | > 0.015 | 0.03 (≈ 0.0439 µM) | > 128 | > 0.015 | 0.25 (≈ 0.366 µM) | > 128 | 0.03 (≈ 0.0439 µM) | 0.125 (≈ 0.183 µM) | 0.5 (≈ 0.731 µM) | 0.25 (≈ 0.366 µM) | 128 (≈ 187 µM) | 0.06 (≈ 0.0878 µM) | 16 (≈ 23.4 µM) | > 0.015 | 0.125 (≈ 0.183 µM) | > 128 | 16 (≈ 23.4 µM) | 0.06 (≈ 0.0878 µM) | > 128
2 | Nc1nc(C(=NOCC(=O)O)C(=O)N[C@H]2CN(C(=O)NS(=O)(=O)n3ncn(NC(=O)c4cc(=O)c(O)c[nH]4)c3=O)C2=O)cs1 [Compound U-78284] | 0.015 (≈ 0.0229 µM) | 0.03 (≈ 0.0458 µM) | > 64 | > 0.008 | 2 (≈ 3.05 µM) | > 64 | 0.125 (≈ 0.191 µM) | 0.25 (≈ 0.381 µM) | 0.25 (≈ 0.381 µM) | 0.25 (≈ 0.381 µM) | 64 (≈ 97.6 µM) | 0.03 (≈ 0.0458 µM) | 16 (≈ 24.4 µM) | > 0.008 | 2 (≈ 3.05 µM) | > 64 | 32 (≈ 48.8 µM) | 0.06 (≈ 0.0915 µM) | > 64
